Test results: US6914045B2, “Glycopeptide antibiotics” (Wyeth Holdings Corporation, priority 2001, dated 2005)
≈ marks a conversion by molar mass, not a printed value.

How the values were obtained:
[1] = anatomic pathology (histopathology of heart and kidney) in mice; type: in vivo; conditions: CD-1 mice, 20 mg/kg intravenously daily for 9 days, necropsy day 10, microscopic histopathology
Procedure: Samples of tissues from necropsied mice were formalin-fixed, paraffin-embedded, sectioned, stained with hematoxylin and eosin, and examined microscopically. Histopathologic findings were recorded. These findings were subjectively graded on a scale corresponding to slight, mild, moderate, marked and severe as compared to untreated controls.

[2] = test system: Escherichia coli; assay: in vitro antibacterial evaluation, MIC by broth dilution; type: cell-based; conditions: 18 hours at 35° C.
Summary of the method: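 Broth dilution in Muller-Hinton II medium per NCCLS standard M7-A2, with an inoculum of 5×10^5 CFU/mL and antibiotic tested over 64-0.06 μg/mL. MIC was taken as the lowest concentration inhibiting visible growth.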

[3] = test system: Enterococcus sp.; assay: as above; type: cell-based
Summary of the method: (§1)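 Broth dilution per NCCLS standard M7-A2 in Muller-Hinton II […], with an inoculum of 5×10^5 CFU/mL and antibiotic spanning 64-0.06 μg/mL. The MIC is the lowest concentration that inhibits growth of the organism.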

[4] = test system: Streptococcus sp.; assay: as above; type: cell-based
Summary of the method: as §1

[5] = test system: Staphylococcus sp.; assay: as above; type: cell-based; conditions: broth dilution, 18 hours at 35° C.; for MIC Staphylococcus aureus (GC 1131): strain GC 1131; for MIC Staphylococcus aureus (GC 3053): strain GC 3053; for MIC Staphylococcus aureus (GC 4541): strain GC 4541; for MIC Staphylococcus aureus-SMITH (GC 4543): strain GC 4543; for MIC Staphylococcus aureus (GC 4544): strain GC 4544; for MIC Staphylococcus aureus (GC 4545): strain GC 4545; for MIC Staphylococcus haemolyticus (GC 4546): strain GC 4546; for MIC Coagulase Negative Staphylococcus (GC 4547): strain GC 4547; for MIC Coagulase Negative Staphylococcus (GC 4548): strain GC 4548; for MIC Coagulase Negative Staphylococcus (GC 4549): strain GC 4549; for MIC Coagulase Negative Staphylococcus (GC 4551): strain GC 4551; for MIC Coagulase Negative Staphylococcus (GC 6257): strain GC 6257
Summary of the method: as §1

[6] = test system: Staphylococcus aureus-SMITH (GC 4543); assay: acute lethal infection in mice; type: in vivo; conditions: acute lethal infection, female CD-1 mice, intraperitoneal challenge, intravenous 30 min. after infection, 7 day survival
Summary of the method: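 Protocol: bacteria suspended in trypticase soy broth or hog gastric mucin injected ip into female CD-1 mice at a level killing untreated controls in 24-48 hr; compound given iv in saline or 5% dextrose 30 min post-challenge; five mice per dose; ED50 derived from pooled 7 day survival of three runs.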

[7] = broth dilution, 18 hours at 35° C.

Cc1ccc(Oc2cccc(-c3nc4cc(CC5NC(=O)C(C(C)c6ccccc6)NC(=O)CNC(=O)C(CO)NC(=O)C(C(O)C6CNC(=N)N6C6OC(CO)C(O)C(O)C6O)NC(=O)C(C(O)C6CNC(=N)N6)NC5=O)ccc4o3)c2)cc1 (stereo not drawn) [Example 28, Cyclo[3-[2-[3-(4-methylphenoxy)phenyl]-1,3-benzoxazol-5-yl]alanyl-3-(2-iminoimidazolidin-4-yl)seryl-3-(3-hexopyranosyl-2-iminoimidazolidin-4-yl)serylserylglycyl-β-methylphenyl-alanyl]]
Anatomical Pathology (Day 10), Heart [1]: 0
Anatomical Pathology (Day 10), Kidney [1]: 0
MIC Escherichia coli (ATCC 25922) ([2]; strain ATCC 25922, broth dilution): 64 µg/mL (≈ 54.3 µM)
MIC Escherichia coli (GC 4559) ([2]; strain GC 4559, broth dilution): 64 µg/mL (≈ 54.3 µM)
MIC Escherichia coli (GC 4560) ([2]; strain GC 4560, broth dilution): 8 µg/mL (≈ 6.79 µM)
MIC Enterococcus faecalis (ATCC 29212) ([3]; strain ATCC 29212; broth dilution, 18 hours at 35° C.): 8 µg/mL (≈ 6.79 µM)
MIC Enterococcus faecalis (GC 2242) ([3]; strain GC 2242; broth dilution, 18 hours at 35° C.): 4 µg/mL (≈ 3.39 µM)
MIC Enterococcus faecium (GC 2243) ([3]; strain GC 2243; broth dilution, 18 hours at 35° C.): 8 µg/mL (≈ 6.79 µM)
MIC Enterococcus faecalis (GC 2691) ([3]; strain GC 2691; broth dilution, 18 hours at 35° C.): 8 µg/mL (≈ 6.79 µM)
MIC Enterococcus faecalis (GC 3059) ([3]; strain GC 3059; broth dilution, 18 hours at 35° C.): 8 µg/mL (≈ 6.79 µM)
MIC Enterococcus faecalis (GC 4552) ([3]; strain GC 4552; broth dilution, 18 hours at 35° C.): 8 µg/mL (≈ 6.79 µM)
MIC Enterococcus faecalis (GC 4553) ([3]; strain GC 4553; broth dilution, 18 hours at 35° C.): 4 µg/mL (≈ 3.39 µM)
MIC Enterococcus faecalis (GC 4554) ([3]; strain GC 4554; broth dilution, 18 hours at 35° C.): 8 µg/mL (≈ 6.79 µM)
MIC Enterococcus faecium (GC 4556) ([3]; strain GC 4556; broth dilution, 18 hours at 35° C.): 8 µg/mL (≈ 6.79 µM)
MIC Enterococcus faecium (GC 4557) ([3]; strain GC 4557; broth dilution, 18 hours at 35° C.): 4 µg/mL (≈ 3.39 µM)
MIC Enterococcus avium (GC 4558) ([3]; strain GC 4558; broth dilution, 18 hours at 35° C.): 4 µg/mL (≈ 3.39 µM)
MIC Enterococcus faecalis (GC 6189) ([3]; strain GC 6189; broth dilution, 18 hours at 35° C.): 8 µg/mL (≈ 6.79 µM)
MIC Streptococcus pneumoniae (ATCC 6301) ([4]; strain ATCC 6301; broth dilution, 18 hours at 35° C.): 4 µg/mL (≈ 3.39 µM)
MIC Streptococcus pneumoniae (GC 1894) ([4]; strain GC 1894; broth dilution, 18 hours at 35° C.): 4 µg/mL (≈ 3.39 µM)
MIC Streptococcus pyogenes (GC 4563) ([4]; strain GC 4563; broth dilution, 18 hours at 35° C.): 1 µg/mL (≈ 0.849 µM)
MIC Streptococcus agalactiae (GC 4564) ([4]; strain GC 4564; broth dilution, 18 hours at 35° C.): 4 µg/mL (≈ 3.39 µM)
MIC Streptococcus pneumoniae (GC 4565) ([4]; strain GC 4565; broth dilution, 18 hours at 35° C.): 4 µg/mL (≈ 3.39 µM)
MIC Staphylococcus aureus (ATCC 29213) ([5]; strain ATCC 29213): 8 µg/mL (≈ 6.79 µM)
MIC Staphylococcus aureus (GC 1131) [5]: 8 µg/mL (≈ 6.79 µM)
MIC Staphylococcus aureus (GC 3051) ([5]; strain GC 3051): 4 µg/mL (≈ 3.39 µM)
MIC Staphylococcus aureus (GC 3053) [5]: 4 µg/mL (≈ 3.39 µM)
MIC Staphylococcus aureus (GC 4541) [5]: 8 µg/mL (≈ 6.79 µM)
MIC Staphylococcus aureus (GC 4542) ([5]; strain GC 4542): 8 µg/mL (≈ 6.79 µM)
MIC Staphylococcus aureus-SMITH (GC 4543) [5]: 4 µg/mL (≈ 3.39 µM)
MIC Staphylococcus aureus (GC 4544) [5]: 8 µg/mL (≈ 6.79 µM)
MIC Staphylococcus aureus (GC 4545) [5]: 4 µg/mL (≈ 3.39 µM)
MIC Staphylococcus haemolyticus (GC 4546) [5]: 4 µg/mL (≈ 3.39 µM)
MIC Coagulase Negative Staphylococcus (GC 4547) [5]: 8 µg/mL (≈ 6.79 µM)
MIC Coagulase Negative Staphylococcus (GC 4548) [5]: 4 µg/mL (≈ 3.39 µM)
MIC Coagulase Negative Staphylococcus (GC 4549) [5]: 4 µg/mL (≈ 3.39 µM)
MIC Coagulase Negative Staphylococcus (GC 4551) [5]: 4 µg/mL (≈ 3.39 µM)
MIC Coagulase Negative Staphylococcus (GC 6257) [5]: 2 µg/mL (≈ 1.7 µM)
median effective dose (ED50), Staphylococcus aureus-SMITH (GC 4543) [6]: 8 mg/kg

CC(c1ccccc1)C1NC(=O)CNC(=O)C(CO)NC(=O)C(C(O)C2CN(Cc3ccc(C(C)(C)C)cc3)C(=N)N2C2OC(CO)C(O)C(O)C2O)NC(=O)C(C(O)C2CNC(=N)N2)NC(=O)C(Cc2ccc(OC3OC(CO)C(OC4OC5COC6(OC5C(O)C4O)C4CC5CC(C4)CC6C5)C(O)C3O)cc2)NC1=O (stereo not shown) [Example 77]
Anatomical Pathology (Day 10), Heart [1]: 0
Anatomical Pathology (Day 10), Kidney [1]: 0
MIC Escherichia coli (ATCC 25922) [2]: >128 µg/mL
MIC Escherichia coli (GC 4559) [2]: >128 µg/mL
MIC Escherichia coli (GC 4560) [2]: 4 µg/mL (≈ 2.54 µM)
MIC Enterococcus avium (GC 4558) ([3]; Enterococcus avium (GC 4558); broth dilution, 18 hours at 35° C.): 4 µg/mL (≈ 2.54 µM)
MIC Enterococcus faecalis (ATCC 29212) ([3]; Enterococcus faecalis (ATCC 29212); broth dilution, 18 hours at 35° C.): 16 µg/mL (≈ 10.2 µM)
MIC Enterococcus faecalis (GC 4552) ([3]; Enterococcus faecalis (GC 4552); broth dilution, 18 hours at 35° C.): 16 µg/mL (≈ 10.2 µM)
MIC Enterococcus faecalis (GC 4553) ([3]; Enterococcus faecalis (GC 4553); broth dilution, 18 hours at 35° C.): 8 µg/mL (≈ 5.08 µM)
MIC Enterococcus faecalis (GC 6189) ([3]; Enterococcus faecalis (GC 6189); broth dilution, 18 hours at 35° C.): 16 µg/mL (≈ 10.2 µM)
MIC Enterococcus faecium (GC 2243) ([3]; Enterococcus faecium (GC 2243); broth dilution, 18 hours at 35° C.): 8 µg/mL (≈ 5.08 µM)
MIC Enterococcus faecium (GC 4556) ([3]; Enterococcus faecium (GC 4556); broth dilution, 18 hours at 35° C.): 16 µg/mL (≈ 10.2 µM)
MIC Enterococcus faecium (GC 4557) ([3]; Enterococcus faecium (GC 4557); broth dilution, 18 hours at 35° C.): 1 to 2 µg/mL
MIC Enterococcus avium (GC 4558) [3, 7]: 4 µg/mL (≈ 2.54 µM)
MIC Enterococcus faecalis (ATCC 29212) [3, 7]: 16 µg/mL (≈ 10.2 µM)
MIC Enterococcus faecalis (GC 2242) [3, 7]: 16 µg/mL (≈ 10.2 µM)
MIC Enterococcus faecalis (GC 2691) [3, 7]: 16 µg/mL (≈ 10.2 µM)
MIC Enterococcus faecalis (GC 3059) [3, 7]: 16 µg/mL (≈ 10.2 µM)
MIC Enterococcus faecalis (GC 4552) [3, 7]: 16 µg/mL (≈ 10.2 µM)
MIC Enterococcus faecalis (GC 4553) [3, 7]: 8 µg/mL (≈ 5.08 µM)
MIC Enterococcus faecalis (GC 4554) [3, 7]: 16 to 32 µg/mL
MIC Enterococcus faecalis (GC 6189) [3, 7]: 16 µg/mL (≈ 10.2 µM)
MIC Enterococcus faecium (GC 2243) [3, 7]: 8 µg/mL (≈ 5.08 µM)
MIC Enterococcus faecium (GC 4556) [3, 7]: 16 µg/mL (≈ 10.2 µM)
MIC Enterococcus faecium (GC 4557) [3, 7]: 1 to 2 µg/mL
MIC Enterococcus faecalis (GC 2242) ([3]; broth dilution, 18 hours at 35° C.; strain GC 2242): 16 µg/mL (≈ 10.2 µM)
MIC Enterococcus faecalis (GC 2691) ([3]; broth dilution, 18 hours at 35° C.; strain GC 2691): 16 µg/mL (≈ 10.2 µM)
MIC Enterococcus faecalis (GC 3059) ([3]; broth dilution, 18 hours at 35° C.; strain GC 3059): 16 µg/mL (≈ 10.2 µM)
MIC Streptococcus agalactiae (GC 4564) [4, 7]: 1 µg/mL (≈ 0.635 µM)
MIC Streptococcus pneumoniae (ATCC 6301) [4, 7]: 2 µg/mL (≈ 1.27 µM)
MIC Streptococcus pneumoniae (GC 1894) [4, 7]: 0.25 to 0.5 µg/mL
MIC Streptococcus pneumoniae (GC 4565) [4, 7]: 2 to 4 µg/mL
MIC Streptococcus pyogenes (GC 4563) [4, 7]: 1 µg/mL (≈ 0.635 µM)
MIC Streptococcus pneumoniae (ATCC 6301) ([4]; broth dilution, 18 hours at 35° C.; strain ATCC 6301): 2 µg/mL (≈ 1.27 µM)
MIC Streptococcus pyogenes (GC 4563) ([4]; broth dilution, 18 hours at 35° C.; strain GC 4563): 1 µg/mL (≈ 0.635 µM)
MIC Streptococcus agalactiae (GC 4564) ([4]; broth dilution, 18 hours at 35° C.; strain GC 4564): 1 µg/mL (≈ 0.635 µM)
MIC Streptococcus pneumoniae (GC 4565) ([4]; broth dilution, 18 hours at 35° C.; strain GC 4565): 2 to 4 µg/mL
MIC Staphylococcus aureus (GC 1131) [5]: 16 µg/mL (≈ 10.2 µM)
MIC Staphylococcus aureus (GC 3053) [5]: 16 µg/mL (≈ 10.2 µM)
MIC Staphylococcus aureus (GC 4541) [5]: 4 to 8 µg/mL
MIC Staphylococcus aureus-SMITH (GC 4543) [5]: 8 µg/mL (≈ 5.08 µM)
MIC Staphylococcus aureus (GC 4544) [5]: 16 µg/mL (≈ 10.2 µM)
MIC Staphylococcus aureus (GC 4545) [5]: 8 µg/mL (≈ 5.08 µM)
MIC Staphylococcus haemolyticus (GC 4546) [5]: 4 to 8 µg/mL
MIC Coagulase Negative Staphylococcus (GC 4547) [5]: 4 µg/mL (≈ 2.54 µM)
MIC Coagulase Negative Staphylococcus (GC 4548) [5]: 4 µg/mL (≈ 2.54 µM)
MIC Coagulase Negative Staphylococcus (GC 4549) [5]: 4 to 8 µg/mL
MIC Coagulase Negative Staphylococcus (GC 4551) [5]: 8 µg/mL (≈ 5.08 µM)
MIC Coagulase Negative Staphylococcus (GC 6257) [5]: 2 µg/mL (≈ 1.27 µM)
median effective dose (ED50), Staphylococcus aureus-SMITH (GC 4543) [6]: 4 mg/kg
